Data: patent publication US20230103554A1, “TNFa SIGNALING [sequence] TUMOR-PROMOTING INFLAMMATION THAT CAN BE TARGETED TO THERAPY” (Baylor College of Medicine, priority 2020, published 2023)
Entries after “also recorded” stand apart in the source; their conditions may differ.

What was measured:
[1] = test system: sTNFα production; experiment: NB-monocyte co-culture, TNFα ELISA of supernatant; type: cell-based, human
Procedure: (§1) Monocytes were directly cultured with wild-type or TNF, TNFR1, TNFR2 KO NB cell lines in ULA plates for 24 hours. Activation of NF-kB in monocytes and NB was measured by flow cytometry and cytokine production measured by ELISA from co-culture supernatant. To evaluate the contact-dependence of monocyte activation by NB, monocytes were cultured in ULA plates with seven-day NB conditioned medium mixed 1:1 with complete monocyte medium for 24 hours and analyzed for IL-6 production. To assess the growth advantage of NB cultured with monocytes, NB-luc cell lines and monocytes were seeded in tissue culture-treated white 96-well plates (1:1 ratio) and cultured for four days. Luminescence was measured using a TECAN Spark plate reader (TECAN). To evaluate changes in proliferation, NB was pulsed for 10 minutes in CellTrace Violet (2 μM, Invitrogen) and seeded at 100,000 cells per well in a 12-well tissue culture-treated plate. Monocytes were added directly to the NB monolayer at a density of 100,000 per well and incubated for four days. CellTrace Violet expression was analyzed by flow cytometry.
(§2) Cytokines released by monocytes were detected within co-culture supernatants using the Human TNF-alpha Quantikine ELISA Kit (TNFα, R&D Systems) and the Human IL-6 Quantikine ELISA Kit (IL-6, R&D Systems) according to manufacturer's guidelines. ELISA plates were read using a TECAN Spark plate reader (TECAN). Global cytokine regulation was evaluated using a custom Luminex panel containing the following cytokines: CX3CL1, CXCL10, EGF, FGF-2, Flt3L, G-CSF, GM-CSF, IL-1α, IL-1β, IL-1Ra, IL-4, IL-6, IL-8, IL-10, IL-12 (p40), IL-12 (p′70), M-CSF, MCP-1, MCP-3, MDC, MIP-1α, MIP-1β, TGFα, TNFα, TNFβ, and VEGF-A (Human Cytokine Panel A, Millipore-Sigma).

[2] = test system: monocyte IL-6 production; experiment: NB-monocyte co-culture, IL-6 ELISA of supernatant; type: cell-based, human
Procedure: as §1, §2

[3] = test system: NF-κB signaling in monocytes; experiment: Intracellular IκBα in monocyte population of co-culture (PhosFlow flow cytometry); type: cell-based, human; details: TAPI 40 μM, 24 hours, vs vehicle control
Procedure: as §1
(§3) To evaluate the expression of TNFα in NB and monocytes, cells were first stimulated with LPS (50 ng/mL) in the presence of GolgiStop (BD Biosciences) and fixed using CytoFix/Cytoperm buffer (BD Biosciences). Cells were then stained with TNFα-PE (BD Biosciences). To evaluate the expression of TNFR1 and TNFR2 on NB and monocytes, cells were stained with TNFR1-BV421 and TNFR2-APC (BD Biosciences) in FACS staining buffer containing 0.05% sodium azide to prevent receptor/antibody processing. To estimate changes in NF-kB expression, treated co-cultures were first stained with ZombieViolet (1 μL/test, Biolegend) to counterstain dead cells and APC-H7 CD45 and/or FITC-CD14 to label monocytes for 20 minutes at room temperature. […] All flow samples were run using an LSRII 5-laser flow cytometer (Texas Children's Hospital Cancer Center Flow Cytometry Core, Houston, Tex.) and analyzed using FlowJo Software (Treestar).

[4] = test system: mTNFα; details: TAPI 40 μM, 24 hours, CD45+GD2− monocyte population
Procedure: (FIG. 13C) NB and monocyte co-cultures were treated with TNF converting enzyme inhibitor TAPI (40 μM) or vehicle control (Veh., 0.2% DMSO) for 24 hours. Surface expression of mTNFα within CD45+GD2− monocyte population was performed using flow cytometry. MFI as indicated. Data are from a representative of two experiments run in duplicate.

[5] = test system: NF-κB signaling in NB cells; experiment: Intracellular IκBα in NB population of co-culture (PhosFlow flow cytometry); type: cell-based, human; details: TAPI 40 μM, 24 hours, vs vehicle control (FIG. 23C)
Procedure: as §1, §3

O=C(c1ccc(Nc2nccc(-c3cc4ccccc4s3)n2)cc1)N1CCC(N2CCCC2)CC1 [IKK inhibitor VII]
soluble (s)TNFα production from monocytes ([1]; CHLA-255/monocyte co-culture, IKKi 0-1000 nM (FIG. 12D, FIG. 19)): dose-dependent abrogation
IL-6 production from monocytes ([2]; CHLA-255/monocyte co-culture, IKKi 0-1000 nM (FIG. 12C, FIG. 19)): dose-dependent abrogation
IL-6 production in NB-monocyte co-cultures ([2]; IKK inhibitor VII 125 nM, 24 hours, vs 0.1% DMSO (FIG. 1C)): reversed IL-6 production

CC(C)C[C@H](CC(=O)NO)C(=O)N[C@@H](Cc1ccc2ccccc2c1)C(=O)N[C@@H](C)C(=O)NCCN [TAPI, TAPI-1]
intracellular IκBα expression in monocytes [3]: no effect
increase in surface staining for mTNFα [4]: 40%
reduction in sTNFα levels in co-culture supernatant ([1]; TAPI 40 μM, 24 hours): 90%
IκBα expression level in NB cells [5]: significant increase in IκBα expression level
IL-6 levels in co-culture supernatant ([2]; TAPI 40 μM, 24 hours, vs vehicle control): increased the activation of monocytes as measured by IL-6 levels; also recorded: significantly increased IL-6 levels
